According to patent US12668797B2, “Compositions and methods for treating chronic myelomonocytic leukemia” (H. Lee Moffitt Cancer Center and Research Institute, Inc., priority 2019, dated 2026):

What was measured:
[1] = test system: acute promyelocytic leukemia (APL); conditions: ATRA based therapy in APL; cited from earlier work
[2] = test system: NRAS^Q61R/+ and NRAS^Q61R/+/MALAT1^KO/KO transplanted mice; assay: ATRA treatment of primary transplants from NRAS Q61R/+ GEM model of CMML; assay type: in vivo; conditions: ATRA intraperitoneally
Description: To validate the differentiation effect in vivo primary transplants were generated from NRAS^Q61R/+/MALAT1^KO/KO and NRAS^Q61R/+ followed by treatment with ATRA. […] Differentiation syndrome is a treatable but potentially fatal complication of approved therapies which induce differentiation in myeloid neoplasms hallmarked by increases in myeloid cell adhesion, invasion, and ultimately lung infiltration. There was a higher proportion of terminally differentiated cells in the lungs of NRAS^Q61R/+/MALAT1^KO/KO mice compared to controls (FIG. 8B). Further, MALAT1 depleted THP-1 cells had increased adhesion and endothelial migration compared to controls consist with an increased potential for differentiation syndrome (FIG. 8C).

THP-1 cells = assay: Differentiation of THP-1 MALAT1 CRISPR KO cells (CD11b/CD14); assay type: cell-based, human; conditions: MALAT1 depleted THP-1 versus control; ATRA 1 μM for 96 h (FIG. 7C)
Description: To confirm that MALAT1 depletion could induce differentiation in human models of leukemia, MALAT1's major transcriptional start site was deleted via CRISPR/Cas9 as previously described in several single cell derived clones of the THP-1 cell line. THP-1 cells were chosen because they were derived from a patient with acute monocytic leukemia, they harbor an NRAS mutation, and they had the highest levels of MALAT1 in our screen of myeloid cell lines.

[3] = test system: myelomonocytic leukemia cell lines; assay: Apoptosis in myelomonocytic leukemia cell lines; assay type: cell-based, human
CMML patients = conditions: 10 CMML patients, 45mg/m^2 of ATRA daily; cited from earlier work
human leukemic cells = assay: Differentiation markers CD11b and CD14 by flow cytometry in human leukemic cells; assay type: cell-based; conditions: stimulated cells, MALAT1 depleted versus control cells
THP-1 xenografts = assay: THP-1 MALAT1 KO / WT xenografts treated with ATRA; assay type: in vivo, mice
Description: Multiple MALAT1 depleted THP-1 leukemia cell line clones have been generated utilizing dual sgRNA-targeted CRISPR technology and partnered with IONIS pharmaceuticals to test clinical grade MALAT1 ASOs in a panel of cell lines. These reagents were used to evaluate the effects of MALAT1 depletion on the above cellular processes to include proliferation, cell cycle, and differentiation. […] Additionally, these models were used to test the impact of MALAT1 depletion on normal and leukemic stem cell self-renewal capacity as well as rigorously interrogated the numbers of hematopoietic stem and progenitor cells upon MALAT1 depletion. Leukemia human cell line xenograft models were used to test the in vivo consequence of MALAT1 depletion with the above CRISPR generated clones.
Differentiation syndrome is a common serious adverse event in human leukemia patients treated with differentiating agents. It is primarily characterized by an inflammatory reaction often a result of differentiated myeloid cells accumulating in target organs, especially the lungs.

## CC1=C(/C=C/C(C)=C/C=C/C(C)=C/C(=O)O)C(C)(C)CCC1 [ATRA, all-trans retinoic acid]
[1]
  cure rates: ~95%
[2]
  differentiation markers (Gr-1/Mac-1): statistically significant differences
THP-1 cells
  response of differentiation markers: more robust response
[3]; ATRA alone
  dose-dependent apoptosis: did not cause a robust dose-dependent apoptosis
[3]; ATRA in combination with MALAT1 depletion
  apoptosis: induced apoptosis in a dose-dependent manner
[3]; FIG. 2, ATRA treatment
  induction of apoptosis following ATRA treatment: minimal induction of apoptosis
CMML patients
  patients who developed differentiation syndrome: 2 patients
  patients who succumbed to differentiation syndrome: 1 patients
  patients with improvement in transfusion requirements: four
Human leukemic cells
  differentiation markers CD11b and CD14 by flow cytometry upon stimulation: enhanced
THP-1 xenografts; ATRA treated MALAT1 KO NSG xenografts, FIG. 1
  differentiation syndrome: evidence of differentiation syndrome
THP-1 xenografts; MALAT1 depleted xenografts treated with ATRA, pilot experiment
  survival of xenografted mice: succumbed one-week post-ATRA therapy
THP-1 xenografts; WT xenografts treated with ATRA
  survival of xenografted mice: remained unaffected

## CCCCCCCCCCCCCC(=O)O[C@@H]1[C@@H](C)[C@@]2(O)[C@@H](C=C(CO)C[C@]3(O)C(=O)C(C)=C[C@@H]23)[C@@H]2C(C)(C)[C@]12OC(C)=O [PMA, phorbol myristate acetate]
THP-1 cells
  response of differentiation markers: more robust response
Human leukemic cells
  differentiation markers CD11b and CD14 by flow cytometry upon stimulation: enhanced
